Test results taken from patent publication US9416141B2 (University of Washington through its Center for …, priority 2012, dated 2016).
Where a name gives a salt, the structure may show the parent alone.

Tested on: hair cells
Assay: Hair cell toxicity assay in zebrafish (neomycin-induced hair cell death, DASPEI staining of neuromasts)
Type: in vivo
Conditions: Danio rerio; for Emax at 25 µM: maximum observed @ 25 μM test compound; for Emax at 25 µM / Emax at 2.8 µM / Emax at 8.3 µM: 200 micromolar neomycin, read-out: Max HC Protection (HCmax, % hair cell survival); for EC50: zebrafish larvae 5-7 dpf, 1 h pre-treatment, then 200 micromolar neomycin + test compound 30 min, read-out: HC50 (concentration that would produce 50% hair cell survival); for Emax at 2.8 µM: maximum observed @ 2.8 μM test compound; for Emax at 8.3 µM: maximum observed @ 8.3 μM test compound
In short: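 Zebrafish larvae 5-7 dpf pre-treated 1 h with compound (0.010-25 μM), then 30 min with 200 μM neomycin plus compound. DASPEI stained 10 neuromasts per fish, scored 0-2 (total 0-20), normalised to vehicle controls as % hair cell survival. HC50 linearly interpolated if survival reached ≥50%; HCmax is maximum survival.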

Row | SMILES | Emax at 25 µM [%] | EC50 [nM] | Emax at 2.8 µM [%] | Emax at 8.3 µM [%]
1 | CC[N+]1(C)C2CCC1c1sc(NC(=O)Nc3ccc(Cl)cc3)c(C(N)=O)c1C2 (racemic) [Example 187, (+/−)-3-Carbamoyl-2-[3-(4-chlorophenyl)ureido]-9-ethyl-9-methyl-5,6,7,8-tetrahydro-4H-thienocyclohepten-5,8-iminium chloride] | 72 | 1000 to 10000 |  | 
2 | CC[N+]1(CCCC(=O)OC(C)(C)C)CCc2c(sc(NC(=O)Nc3ccc(Cl)cc3)c2C(N)=O)C1 (centres unmarked) [Example 198, 6-[4-(tert-Butoxy)-4-oxobutyl]-3-carbamoyl-2-[3-(4-chlorophenyl)ureido]-6-ethyl-4,5,6,7-tetrahydrothieno[2,3-c]pyridin-6-ium trifluoroacetate] |  | < 1000 | 89 | 
3 | CCN1CCc2c(sc(NC(=O)Nc3cccnc3)c2C(N)=O)C1 [Example 69, 6-Ethyl-2-[3-(pyridin-3-yl)ureido]-4,5,6,7-tetrahydrothieno[2,3-c]pyridine-3-carboxamide dihydrochloride] | 12 |  |  | 
4 | CC(C1CCC1)[N+]1(C)CCc2c(sc(NC(=O)Nc3ccc(Cl)cc3)c2C(N)=O)C1 (racemic) [Example 203, (+/−)-3-Carbamoyl-2-[3-(4-chlorophenyl)ureido]-6-(1-cyclobutylethyl)-6-methyl-4,5,6,7-tetrahydrothieno[2,3-c]pyridin-6-ium chloride] |  | < 1000 | 75 | 
5 | CN1CCC(N2CCc3c(sc(NC(=O)Nc4ccc(Cl)cc4)c3C(N)=O)C2)CC1 [Example 8, 2-[3-(4-Chlorophenyl)ureido]-6-(1-methylpiperidin-4-yl)-4,5,6,7-tetrahydrothieno[2,3-c]pyridine-3-carboxamide dihydrochloride] | 84 | > 10000 |  | 
6 | NC(=O)c1c(NC(=O)Nc2ccc3ccccc3c2)sc2c1CCN(CCCCO)C2 [Example 37, 6-(4-Hydroxybutyl)-2-[3-(naphthalen-2-yl)ureido]-4,5,6,7-tetrahydrothieno[2,3-c]pyridine-3-carboxamide hydrochloride] | 105 | 1000 to 10000 |  | 
7 | CCN1CCc2c(sc(Nc3c(Nc4ccc(Cl)cc4)c(=O)c3=O)c2C(N)=O)C1 [Example 109, 2-({2-[(4-chlorophenyl)amino]-3,4-dioxocyclobut-1-en-1-yl}amino)-6-ethyl-4,5,6,7-tetrahydrothieno[2,3-c]pyridine-3-carboxamide hydrochloride] | 22 |  |  | 
8 | CCN1CCc2c(sc(NC(=O)NCc3cccc(Cl)c3)c2C(N)=O)C1 [Example 75, 2-[3-(3-Chlorobenzyl)ureido]-6-ethyl-4,5,6,7-tetrahydrothieno[2,3-c]pyridine-3-carboxamide hydrochloride] | 24 |  |  | 
9 | CN(C)C1CCc2c(sc(NC(=O)Nc3ccc(Cl)cc3)c2C(N)=O)C1 (centres unmarked) [Example 42, 2-[3-(4-Chlorophenyl)ureido]-6-(dimethylamino)-4,5,6,7-tetrahydrobenzo[b]thiophene-3-carboxamide hydrochloride] | 90 | 1000 to 10000 |  | 
10 | CCN1CCc2c(sc(N(CC)C(=O)Nc3ccc(Cl)cc3)c2C(N)=O)C1 [Example 113, 2-[3-(4-chlorophenyl)-1-ethylureido]-6-ethyl-4,5,6,7-tetrahydrothieno[2,3-c]pyridine-3-carboxamide hydrochloride] |  |  | 12 | 
11 | NC(=O)c1c(NC(=O)Nc2ccc(Cl)cc2)sc2c1CCN(CC1CCCC1)C2 [Example 17, 2-[3-(4-Chlorophenyl)ureido]-6-(cyclopentylmethyl)-4,5,6,7-tetrahydrothieno[2,3-c]pyridine-3-carboxamide hydrochloride] |  | 1000 to 10000 |  | 65
12 | CC(C)[N+]1(C)CCc2c(sc(NC(=O)Nc3ccc(Cl)cc3)c2C(N)=O)C1 (centres unmarked) [Example 191, 3-Carbamoyl-2-[3-(4-chlorophenyl)ureido]-6-isopropyl-6-methyl-4,5,6,7-tetrahydrothieno[2,3-c]pyridin-6-ium iodide] |  | < 1000 |  | 80
13 | CC[N+]1(C)CCc2c(sc(NC(=O)N(C)c3ccc(Cl)cc3)c2C(N)=O)C1 (centres unmarked) [Example 185, 3-Carbamoyl-2-[3-(4-chlorophenyl)-3-methylureido]-6-ethyl-6-methyl-4,5,6,7-tetrahydrothieno[2,3-c]pyridin-6-ium chloride] |  |  | 16 | 
14 | CC(C)(C)OC(=O)CCN1CCc2c(sc(NC(=O)Nc3ccc(Cl)cc3)c2C(N)=O)C1 [Example 51, tert-Butyl 3-{3-Carbamoyl-2-[3-(4-chlorophenyl)ureido]-4,5-dihydrothieno[2,3-c]pyridin-6(7H)-yl}propanoate] |  | 1000 to 10000 |  | 55
15 | NC(=O)c1c(NC(=O)Nc2ccc(I)cc2)sc2c1CCN(CCCOCc1ccccc1)C2 [Example 207] | 66 | 1000 to 10000 |  | 
16 | NC(=O)c1c(NC(=O)Nc2ccc(Cl)cc2)sc2c1CCN(CC1CCC1)C2 [Example 12, 2-[3-(4-Chlorophenyl)ureido]-6-(cyclobutylmethyl)-4,5,6,7-tetrahydrothieno[2,3-c]pyridine-3-carboxamide hydrochloride] |  | 1000 to 10000 |  | 73
17 | CCN1CCc2c(sc(NC(=O)Nc3ccc4ccccc4c3)c2C(N)=O)C1 [Example 223, 6-ethyl-2-{[(naphthalen-2-yl)carbamoyl]amino}-4H,5H,6H,7H-thieno[2,3-c]pyridine-3-carboxamide] | 104 | 1000 to 10000 |  | 
18 | CC(C(=O)OC(C)(C)C)N1CCc2c(sc(NC(=O)Nc3ccc(Cl)cc3)c2C(N)=O)C1 (racemic) [Example 59, (+/−)-tert-Butyl 2-{3-carbamoyl-2-[3-(4-chlorophenyl)ureido]-4,5-dihydrothieno[2,3-c]pyridin-6(7H)-yl}propanoate] |  |  |  | 40
19 | NC(=O)c1c(NC(=O)Nc2ccc(Cl)cc2)sc2c1CC[N+]1(CCCC1)C2 [Example 138, 3′-Carbamoyl-2′-[3-(4-chlorophenyl)ureido]-5′,7′-dihydro-4′H-spiro[pyrrolidine-1,6′-thieno[2,3-c]pyridin]-1-ium bromide] | 94 | < 1000 |  | 
